According to US20110077294A1, “R-(-) / S-(+)-7-[3-N SUBSTITUTED AMINO-2 HYDROXYPROPOXY] FLAVONES” (priority 2006, published 2011):

Assays:
Type in all cases: in vivo
[1] = system: C57BL/KsBom-db/db mice; assay: Blood glucose profile of db/db mice during daily treatment (antihyperglycemic activity)
Protocol: (§1) C57BL/KsBom-db/db mice (12-18 weeks old), weighing around 35+g bred in the animal house of CDRI, Lucknow, were used in the present experiments. The mice were housed in groups of 3 to 5 (same sex) in a room controlled for temperature (23±2.0 ° C.) and 12/12 hours light/dark cycle (lights on at 6.00 am). Body weight of each animal was measured daily from day 1 to day 10 of the experiment. All animals had free access to fresh water and normal pellet diet except on the day of the postprandial protocol (day 6) and during the overnight fast before the OGTT on day 10. The animals always had access to water during experimental periods. Blood glucose was checked every morning up till day 10. On day 10 an oral glucose tolerance test (OGTT) was performed after an overnight fasting. Blood glucose was measured at −30.0 min and test compounds were administered. The blood glucose was again measured at 0 min just post treatment and at this juncture glucose solution was given at a dose of 3 gm/kg to all the groups including the vehicle treated group. The blood glucose levels were checked at 30 min, 60 min, 90 min and 120 min post glucose administration. The data was analyzed for its significance on Prism software.

[2] = system: C57BL/KsBom-db/db mice; assay: Oral glucose tolerance test (OGTT) on day 10 in db/db mice; settings: 25 mg/kg
Protocol: as §1

[3] = system: C57BL/KsBom-db/db mice; assay: Serum lipid profile of treated db/db mice (antidyslipidemic activity); settings: 25 mg/kg
Protocol: as §1

[4] = system: C57BL/KsBom-db/db mice; assay: as above; settings: db/db mice, 25 mg/kg

CC(C)NC[C@H](O)COc1ccc2c(=O)cc(-c3cc(O)cc(O)c3)oc2c1 [S-002-857 (S), (S)-(+)-7-(2-Hydroxy-3-isopropylaminopropoxy)-3′,5′-dihydroxyflavone]
average blood glucose lowering ([1]; 25.0 mg/kg): around 20%
Blood glucose, day 1 post treatment ([1]; 25 mg/kg, day 1): 12.7 ± 2.61 mM
Blood glucose % change compared to control, day 1 ([1]; 25 mg/kg, day 1, vs sham): −1.60%
Blood glucose, day 2 post treatment ([1]; 25 mg/kg, day 2): 12.3 ± 2.40 mM
Blood glucose % change compared to control, day 2 ([1]; 25 mg/kg, day 2, vs sham): −0.80%
Blood glucose, day 3 post treatment ([1]; 25 mg/kg, day 3): 11.5 ± 1.80 mM
Blood glucose % change compared to control, day 3 ([1]; 25 mg/kg, day 3, vs sham): −8.13%
Blood glucose, day 4 post treatment ([1]; 25 mg/kg, day 4): 11.3 ± 2.54 mM
Blood glucose % change compared to control, day 4 ([1]; 25 mg/kg, day 4, vs sham): −12.7%
Blood glucose, day 5 post treatment ([1]; 25 mg/kg, day 5): 10.1 ± 2.08 mM
Blood glucose % change compared to control, day 5 ([1]; 25 mg/kg, day 5, vs sham): −25.3%
Blood glucose, day 6 post treatment ([1]; 25 mg/kg, day 6): 9.19 ± 2.25 mM
Blood glucose % change compared to control, day 6 ([1]; 25 mg/kg, day 6, vs sham): −29.1%
Blood glucose, day 7 post treatment ([1]; 25 mg/kg, day 7): 9.41 ± 1.37 mM
lowering in blood glucose, day 7 ([1]; 25.0 mg/kg, day 7, statistically significant): around 37.4%
Blood glucose % change compared to control, day 7 ([1]; 25 mg/kg, day 7, vs sham): −37.4%
Blood glucose, day 8 post treatment ([1]; 25 mg/kg, day 8): 9.28 ± 1.02 mM
lowering in blood glucose, day 8 ([1]; 25.0 mg/kg, day 8, statistically significant): ~36.8%
Blood glucose % change compared to control, day 8 ([1]; 25 mg/kg, day 8, vs sham): −36.8%
Blood glucose, day 9 post treatment ([1]; 25 mg/kg, day 9): 7.56 ± 2.13 mM
lowering in blood glucose, day 9 ([1]; 25.0 mg/kg, day 9, statistically significant): ~43.3%
Blood glucose % change compared to control, day 9 ([1]; 25 mg/kg, day 9, vs sham): −43.3%
Blood glucose profile, 0 min post glucose load ([2]; OGTT day 10, 0 min): 13.8 ± 2.18 mM
Blood glucose % change compared to control, 0 min post glucose load ([2]; OGTT day 10, 0 min, vs sham): −21.1%
Blood glucose profile, 30 min post glucose load ([2]; OGTT day 10, 30 min): 25.3 ± 0.58 mM
Blood glucose % change compared to control, 30 min post glucose load ([2]; OGTT day 10, 30 min, vs sham): −23.7%
Blood glucose profile, 60 min post glucose load ([2]; OGTT day 10, 60 min): 19.8 ± 1.20 mM
Blood glucose % change compared to control, 60 min post glucose load ([2]; OGTT day 10, 60 min, vs sham): −26.9%
Blood glucose profile, 90 min post glucose load ([2]; OGTT day 10, 90 min): 15.2 ± 0.48 mM
Blood glucose % change compared to control, 90 min post glucose load ([2]; OGTT day 10, 90 min, vs sham): −31.5%
Blood glucose profile, 120 min post glucose load ([2]; OGTT day 10, 120 min): 11.6 ± 0.58 mM
Blood glucose % change compared to control, 120 min post glucose load ([2]; OGTT day 10, 120 min, vs sham): −37.6%
Blood glucose profile, −30 min post glucose load ([2]; OGTT day 10, −30 min): 8.76 ± 1.90 mM
Blood glucose % change compared to control, −30 min post glucose load ([2]; OGTT day 10, −30 min, vs sham): −32.2%
effect of 10 days treatment on glucose tolerance (overall improvement in OGTT) ([2]; vs sham): 27%
Serum lipid profile: Cholesterol [3]: 152 ± 7.00 mg/dL
Serum lipid profile: HDL-Chol [3]: 65.0 ± 6.03 mg/dL
Serum lipid profile: Triglycerides [3]: 124 ± 3.51 mg/dL
serum cholesterol, triglycerides (lipid profile) compared to sham treated (in words) [3]: not statistically significant
Cholesterol % change compared to control ([3]; vs sham): −11.2%
HDL-Chol % change compared to control ([3]; vs sham): +17.3%
Triglycerides % change compared to control ([3]; vs sham): −6.54%
elevation in HDL-cholesterol level than control [4]: 17.3%
